Assay [1] has as its system p-STAT3, p-JAK2, Bcl-XL, apoptosis protease 3, 9. Kind of assay: Protein electrophoresis of extracts from treated allograft mouse. The class given is in vivo. To be noted: 0.01 mg/kg intraperitoneal injection, three times a week; versus control mouse. As to the method: LD030's effect on the growth of allograft pancreatic cancer cell lines was further studied as follows: Each mouse model was given 0.01 mg/kg LD030 via intraperitoneal injection, three times a week. […] Extracted from the treated mouse and the control mouse, the phosphorylation-signal transduction and activator of transcription (p-STAT3), phospho-JAK2 (p-JAK2), Bcl-XL, apoptosis protease 3, 9 and GADPH (glyceraldehyde-3-phosphate dehydrogenase, or […]) were subject to protein electrophoresis. […] GADPH was used as an internal reference, the expression of which was basically unchanged.

For assay [2], the system named is SF-268 (brain tumor cell lines). The assay is described as follows: MTT assay, LD030 on SF-268. In kind it is cell-based. To be noted: Homo sapiens; SF-268, 100 μM, 48 hours; read-out: inhibition rate on cell growth. On the procedure:
(§1) MTT assay, a well known method known in the art, was used to analyze anticancer effects of compound LD030 on human cancer cell lines, such as, HepG2 (liver cancer cell line), PancI (pancreatic cancer cell line), NCI-H460 (lung cancer cell line), MCF-7 (breast adenocarcinoma cell line) and SF-268 (brain tumor cell lines). An LD030 solution was diluted gradually to obtain a serial of LD030 solutions with decreasing concentrations, which was used to treat various cancer cell lines mentioned above incubated in separate container. […] For incubating with HepG2 cell line, LD030's concentrations were 0.001 μM, 0.01 μM, 0.1 μM, 1 μM, 10 μM, 100 μM. For PancI cell line, the concentrations were 0.1 μM, 1 μM, 10 μM, 100 μM. For NCI-H460 cell line, the concentrations were 0.001 μM, 0.01 μM, 0.1 μM, 1 μM, 10 μM, 100 μM. For MCF-7 cell line, the concentrations were 0.001 μM, 0.01 μM, 0.1 μM, 1 μM, 10 μM, 100 μM. For SF-268 cell line, the concentrations were 0.001 μM, 0.01 μM, 0.1 μM, 1 μM, 10 μM, 100 μM.
A general note: Tetrazolium assays rely on reduction of a dye to a coloured formazan, in cell work by metabolically active cells.

The subject of assay [3] is NCI-H460 (lung cancer cell line). The assay is described as follows: MTT assay, LD030 on NCI-H460. The class given is cell-based. To be noted: Homo sapiens; NCI-H460, 100 μM, 48 hours; read-out: inhibition rate on cell growth. As to the method: as §1
In assay [4] the test system is PancI (pancreatic cancer cell line). The assay is described as follows: MTT assay, LD030 on PancI. In kind it is cell-based. The conditions noted are these: Homo sapiens, 48 hours, read-out: inhibition rate on cell growth. On the procedure:
as §1

The subject of assay [5] is Jak/STAT phosphorylation in PancI cells. Kind of assay: Western Blotting of signal pathway proteins in PancI cells. In kind it is cell-based, human. In general terms: Immunoblotting shows a protein as a band on a membrane.
Assay [6] has as its system HepG2 (liver cancer cell line). Kind of assay: MTT assay, LD030 on HepG2. The class given is cell-based. The conditions noted are these: Homo sapiens, 48 hours, read-out: inhibition rate on cell growth. As to the method: as §1
For assay [7], the system named is MCF-7 (breast adenocarcinoma cell line). Kind of assay: MTT assay, LD030 on MCF-7. The class given is cell-based. To be noted: Homo sapiens, MCF7; MCF-7, 100 μM, 48 hours; read-out: inhibition rate on cell growth. On the procedure: as §1
The mark [8] stands for this setting: 50 μM, at 24 hours and 48 hours, versus blank control.

As usually defined, the inhibition is the drop in the measured response relative to a control, in per cent. Regarding `CC(=O)OC(C)(C)C(=O)CCC(C)C1CC[C@@]2(C)C34CC[C@H]5C(C)(C)[C@@H](O)CC[C@]5(C)C3(CC[C@]12C)O4` (stereo partly shown) [LD030], in assay [1], the “expression of Bcl-XL” value is reported as “significantly reduced”; the “expression of apoptosis protease 3, 9” value is reported as “significantly increased”; the “expression of p-JAK2” value was “significantly reduced”; the “expression of p-STAT3” value is “significantly reduced”. Also, the inhibition at 100 µM in assay [2] is > 80%. In addition, in assay [3], the inhibition at 100 µM was > 80%. The inhibition at 100 µM in assay [4] was > 80%. Also, in assay [5] (20 μM, versus blank control), the p-p38 protein expression result is on record as “increased”. Besides, in assay [5] (setting [8]), the p-jak2 result is “significantly reduced” and the “p-stat3 (tyr705)” value is given as “significantly reduced”. For the same molecule, the “expression of Cyclin B1” value in assay [5] (50 μM, at 48 hours) is on record as “decreased”. In addition, the inhibition at 100 µM in assay [6] was > 80%. Moreover, the inhibition at 100 µM in assay [7] was > 80%.

Values taken from patent publication US9522935B2, “Commands and method of treating cancer via RHO pathway” (priority 2013, dated 2016).
